From patent US20090143469A1, “SALTS OF NATEGLINIDE” (priority 2002, published 2009)
Like-named read-outs stand apart in the source and are kept apart here.

Key:
Format in all cases: physicochemical
[1] = Solubility in water of nateglinide salts
[2] = Bulk density of nateglinide salts
[3] = Gain in weight at 84% RH (hygroscopicity) of nateglinide salts; settings: for Gain % (gain in weight at 84% RH): 84% RH (relative humidity), * = XRPD changed, confirmed by Thermalgravimetry; for hygroscopicity (in words): different relative humidities

Solubility Water [1] [µg/mL]	Bulk Density [2] [g/mL]	Gain % (gain in weight at 84% RH) [3]	Compound	also measured
540	0.24		[Ca] [Calcium]	
450	0.21	<0.1%	CC(C)[C@H]1CC[C@H](C(=O)N[C@H](Cc2ccccc2)C(=O)[O-])CC1.CC(C)[C@H]1CC[C@H](C(=O)N[C@H](Cc2ccccc2)C(=O)[O-])CC1.[Mg+2] [Comp. No. 11]	water solubility compared with other forms (in words) [1]: comparable to that of the calcium analogue; hygroscopicity (in words) [3]: non-hygroscopic
7300	0.16	<0.1%	CC(C)[C@H]1CC[C@H](C(=O)N[C@H](Cc2ccccc2)C(=O)O)CC1.CNC[C@H](O)[C@@H](O)[C@H](O)[C@H](O)CO [Comp. No. 12]	water solubility compared with other forms (in words) [1]: lower than that of the alkaline metal salts of nateglinide; hygroscopicity (in words) [3]: non-hygroscopic
	0.51	<0.1%	CC(C)[C@H]1CC[C@H](C(=O)N[C@H](Cc2ccccc2)C(=O)O)CC1.NC(CO)(CO)CO [Comp. No. 13]	Solubility Water ([1]; listed as TRIS): >40000 µg/mL; Solubility Water ([1]; listed as tris(hydroxymethyl)-aminomethane salt of nateglinide): more than 40 mg/ml
		1.3%	CC(C)[C@H]1CC[C@H](C(=O)N[C@H](Cc2ccccc2)C(=O)O)CC1.NCCCCC(N)C(=O)O [Comp. No. 14]	
		<0.1%	CC(C)C1CCC(C(=O)NC(Cc2ccccc2)C(=O)O)CC1.N (stereo not drawn) [Comp. No. 17]	
		1.19%	CC(C)[C@H]1CC[C@H](C(=O)N[C@H](Cc2ccccc2)C(=O)[O-])CC1.[Na+] [Compound No. 1]	
		8.2* %	CC(C)C1CCC(C(=O)NC(Cc2ccccc2)C(=O)[O-])CC1.[K+] (stereo not drawn) [Compound No. 5]	
		0.4%	CC(C)C1CCC(C(=O)NC(Cc2ccccc2)C(=O)[O-])CC1.CC(C)C1CCC(C(=O)NC(Cc2ccccc2)C(=O)[O-])CC1.[Ca+2] (stereo not drawn) [Compound No. 9]	
	0.18		CC(C)[C@H]1CC[C@H](C(=O)N[C@H](Cc2ccccc2)C(=O)O)CC1 [Form B of nateglinide, N-(trans-4-isopropylcyclohexylcarbonyl)-D-phenylalanine, reference compound]	solubility [1]: 90 µg/mL
90	0.28	<0.1%	CC(C)[C@H]1CC[C@H](C(=O)N[C@H](Cc2ccccc2)C(=O)O)CC1 [Form H of nateglinide, N-(trans-4-isopropylcyclohexylcarbonyl)-D-phenylalanine, reference compound]	
>40000	0.17		[K+] [Potassium]	
>40000	0.14		CC(C)[C@H]1CC[C@H](C(=O)N[C@H](Cc2ccccc2)C(=O)[O-])CC1.[Na+] [Sodium]	
<200	0.20		Ammonium	

Compound	Solubility Water [1] [µg/mL]	Bulk Density [2] [g/mL]	Gain % (gain in weight at 84% RH) [3]	also measured
Lysine		0.50		
